# US20260284087A1, “USES OF CANNABIDIOL (CBD) AND ADVANCED METABOLIC SYNDROME” (THE REGENTS OF THE UNIVERSITY OF CALIFORNIA, priority 2022, published 2026)
# Key:
# [1] = system: Otsuka Long-Evans Tokushima Fatty (OLETF) rats; assay: Plasma metabolomics in CBD-treated OLETF rats; format: in vivo, rat; details: OLETF vs. CBD, 200 mg CBD/kg oral gavage for 5 weeks, p<0.0001
# Description: FIGS. 2A-2C CBD increases BAIBA. A) Metabolomic map showing metabolites with p<0.05 after Student's t-test, representing mean plasma peak intensity fold-changes between groups in metabolites with q<0.2, for OLETF vs. CBD, B) top 5 metabolites, associated pathway and change directionality listed by lowest p-value for OLETF vs. CBD and C) raw mean peak area of BAIBA. *p<0.05 compared to LETO and †p<0.05 compared to OLETF by ANOVA with Tukey's HSD or student's t-test.
# (§1) To assess the effects of a CBD on BAT loss associated with progressive MetS, a cohort of 15-week-old Otsuka Long-Evans Tokushima Fatty (OLETF) rats were administered 200 mg CBD/kg by oral gavage for 5 weeks. Animals were fed ad libitum and monitored in metabolic cages alongside vehicle-treated OLETF and lean strain control Long-Evans Tokushima Otsuka (LETO) rats. Brown adipose tissue content was estimated from 2-dimensional images to quantify surface area. The Otsuka Long-Evans Tokushima Fatty (OLETF) rat is a monogenic model of diet-induced obesity accelerated by a mutation in the CCK receptor. […] At >40 weeks of age, OLETF rats suffer from severe metabolic dysfunction and therefore serve as a model of aged, severe MetS.
# [2] = system: Otsuka Long-Evans Tokushima Fatty (OLETF) rats; assay: CBD effect on brown adipose tissue loss in OLETF rats with progressive MetS; format: in vivo, rat; details: 15-week-old OLETF rats, 200 mg CBD/kg oral gavage for 5 weeks; p<0.05; BAT estimated from 2-dimensional images (surface area)
# Experimental: as §1
compound,measurement,setting,value
"C=C(C)[C@@H]1CCC(C)=C[C@H]1c1c(O)cc(CCCCC)cc1O [CBD, Cannabidiol]",increase in ß-aminoisobutyric acid (BAIBA),[1],2.1 fold
same,BAT masses preserved (of BAT lost in OLETF control),[2],55%
